Assay results published in PubChem BioAssay AID506 (SGCOxCompounds, 2006).

What follows are compounds tested against Serine/threonine-protein kinase Nek2 (Homo sapiens) (UniProt P51955) (assay: ligand-induced stabilization of human NEK2 kinase – biophysical, DSF, SYPRO orange, recombinant protein (AID 506)). Settings: recombinant NEK2, DSF thermal shift, at 10 µM, protein 2 µM, hits give high values.
Serine/threonine-protein kinase Nek2 (Homo sapiens), sequence (P51955 whole entry, looked up): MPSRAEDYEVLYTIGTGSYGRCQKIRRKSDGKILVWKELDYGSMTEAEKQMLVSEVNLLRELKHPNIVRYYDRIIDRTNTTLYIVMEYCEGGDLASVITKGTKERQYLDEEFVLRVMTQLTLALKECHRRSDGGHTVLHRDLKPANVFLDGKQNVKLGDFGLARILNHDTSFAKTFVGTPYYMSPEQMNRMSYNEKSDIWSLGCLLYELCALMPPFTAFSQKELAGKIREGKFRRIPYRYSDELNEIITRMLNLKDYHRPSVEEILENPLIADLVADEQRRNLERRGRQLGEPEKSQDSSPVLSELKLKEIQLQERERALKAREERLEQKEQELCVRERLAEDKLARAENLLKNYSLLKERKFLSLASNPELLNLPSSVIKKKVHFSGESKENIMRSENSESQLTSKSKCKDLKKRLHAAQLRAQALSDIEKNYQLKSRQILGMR

SMILES | Tm shift [°C]
NC(=O)Nc1sc(-c2ccccc2)cc1C(N)=O | 3.1
Cc1cc(Nc2nc(-c3ccccc3)nc3ccccc23)n[nH]1 | 3.7
Clc1cccc(Nc2ccn3ncc(-c4ccc5c(c4)OCO5)c3n2)c1 | 3.3
C=CCNC(=O)c1cccc2c1-c1ccccc1C2=O | 4.6
Nc1nc(Nc2ccc(S(N)(=O)=O)cc2)nn1C(=S)Nc1c(F)cccc1F | 3.1
Nc1cc2ncnc(Nc3cccc(Br)c3)c2cc1N | 3.3
O=c1c(O)c(-c2ccc(O)c(O)c2)oc2cc(O)cc(O)c12 | 3.4

Second part, the compound after the results:

Tm shift [°C] | SMILES
6 | Cn1cc(/C=C2\C(=O)Nc3ccc(S(N)(=O)=O)cc32)c2ccccc21
5.6 | NS(=O)(=O)c1ccc(Nc2nc(OCC3CCCCC3)c3[nH]cnc3n2)cc1
5.4 | CCN(CC)CCNC(=O)c1c(C)[nH]c(/C=C2\C(=O)Nc3ccc(Cl)cc32)c1C
3.7 | O=C1NCc2c1c1c3ccccc3[nH]c1c1[nH]c3ccccc3c21
3.3 | Nc1cccc(-c2cc3c(Oc4cccc(O)c4)ncnc3[nH]2)c1
3.2 | COc1cccc(-c2cnn3ccc(Nc4cccc(Cl)c4)nc23)c1
3.3 | OCC(O)CCO/N=C1/C(c2c(O)[nH]c3ccccc23)=Nc2ccccc21 (stereo unspecified)
3.2 | O=Nc1c(-c2c(O)[nH]c3ccc(S(O)(O)O)cc23)[nH]c2ccccc12
3.2 | O=C1C(C2=C3C(=Nc4ccccc43)/C(=C\c3ccc(O)cc3)C2=O)=C2C(=Nc3ccccc32)/C1=C\c1ccc(O)cc1
